The source of these data is patent US20240218073A1, “IMMUNOMODULATORY ANTI-CD73 ANTIBODIES AND USES THEREOF” (Corvus Pharmaceuticals, Inc., priority 2019, published 2024).

The subject of data set [1] is B lymphocytes. Description: B cell activation and maturation markers by flow cytometry in vitro. It counts as cell-based, human. The method, then: FIG. 6 are bar graphs showing CPI-006 directly activates B lymphocytes. Purified B cells were incubated overnight with 10 μg/mL human IgG1 isotype control or CPI-006 or anti-IgM microbeads, a positive control for BCR stimulation. Expression of activation markers CD69, CD83, CD86, CD25 or MHC-II was measured by flow cytometry. Mean fluorescence intensity (MFI) was determined for each activation marker and was normalized to the untreated condition for each donor. The figure legend from top to bottom is representative of each group of four bars from left to right. (N=3-5 donors).
FIG. 7 illustrates expression of CD69 on B cells (CD19+CD3−) as measured by flow cytometry and reported by MFI. Human PBMCs were incubated overnight with 10 μg/mL CPI-006 with or without NECA over a range of concentrations or 10 μM APCP. Expression of CD69 on B cells (CD19+CD3−) was measured by flow cytometry and MFI is reported. Error bars represent mean±SD. *p<0.05, **p<0.01 as determined by t-test.
Human B cells were stimulated in vitro with CPI-006 or CPX-016 (1 ug/ml) or an isotype control for 3 days. IgD and CD27 expression were evaluated by flow cytometry. The mean fluorescence intensity (MFI) of each marker was determined in FlowJo and normalized to CPX-016. N=3 donors shown. For each group of two bars, left bar represents treatment with […] and right bar represents treatment with CPX-006.
FIG. 13A: Purified B cells from 3-5 healthy donors were incubated overnight with human IgG1 isotype control or CPI-006 (10 μg/mL) or anti-IgM microbeads, a positive control for BCR stimulation. Expression of activation markers CD69, CD83, CD86, or MHC-II was measured by flow cytometry. […] Mean fluorescence intensity (MFI) was determined for each marker and was normalized to the untreated or isotype control for each donor. […] Expression of CD69 (MFI) was measured by flow cytometry. […] CD69 and CD73 were measured on B cells by flow cytometry. […] Expression of CD69 on B cells (CD19^POSCD3^NEG) was measured by flow cytometry. […]

Data set [2] relates to circulating CD73^POS B cells. Description: Phase 1 trial in cancer patients: peripheral blood immunophenotyping by flow cytometry. As to conditions: ciforadenant monotherapy. It is filed as in vivo, human. For orientation: A flow cytometer gives signals particle by particle.
In data set [3] the target is T1, CD73 expressed on primary human peripheral blood mononuclear cells (Homo sapiens, UniProt P21589).
T1 sequence (P21589 27-549): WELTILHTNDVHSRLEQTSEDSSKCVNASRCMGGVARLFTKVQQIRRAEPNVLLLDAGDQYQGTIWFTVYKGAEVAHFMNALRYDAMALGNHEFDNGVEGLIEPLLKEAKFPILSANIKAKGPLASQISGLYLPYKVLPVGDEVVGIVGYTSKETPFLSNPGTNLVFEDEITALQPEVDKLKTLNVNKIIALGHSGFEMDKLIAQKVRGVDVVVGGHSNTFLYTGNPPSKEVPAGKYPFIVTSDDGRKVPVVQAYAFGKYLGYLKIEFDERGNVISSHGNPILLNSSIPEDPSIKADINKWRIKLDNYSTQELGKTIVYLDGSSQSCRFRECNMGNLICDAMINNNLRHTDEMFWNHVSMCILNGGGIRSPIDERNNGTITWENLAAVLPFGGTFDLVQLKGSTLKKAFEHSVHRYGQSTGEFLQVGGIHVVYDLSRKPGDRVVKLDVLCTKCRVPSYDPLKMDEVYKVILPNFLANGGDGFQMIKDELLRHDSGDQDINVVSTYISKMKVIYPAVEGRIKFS
Kind of data set: CD73 enzymatic activity on primary human PBMCs (AMP remaining, CellTiterGlo). To be noted: 300 nM antibody, 4 hours incubation with AMP, 9 donors.

The subject of data set [4] is T cells. Description: T cell proliferation of anti-CD3/anti-CD28 activated PBMCs in the presence of AMP. It counts as cell-based, human. To be noted: 500 nM antibody, 13 donors. The method, then:
FIG. 12A: CD73 catalytic activity was measured with MDA-MB-231 cells or MDA-MB-231 CD73 CRISPR cells in the presence of CPI-006, oleclumab, or 1 mM APCP by adding 250 μM AMP and measuring phosphate levels in the cell culture supernatant. FIG. 12B: Human PBMCs were incubated with AMP in the presence of CPI-006, oleclumab, or isotype control antibody at the saturating concentration of 300 nM. After 4 hours of incubation, the AMP remaining in the supernatant was quantified using the CellTiterGlo assay as described in the Methods. Percentage of inhibition was plotted. Data represent 9 individual donors and error bars represent mean±SD. ****p<0.0001 as determined by t-test. FIG. 12C: Human PBMCs were activated with anti-CD3/anti-CD28 in the presence of AMP and a range of doses of CPI-006, oleclumab, or isotype control antibody. T cell proliferation was assessed by flow cytometry. T cell proliferation for 13 donors treated with 500 nM CPI-006 or oleclumab or 890 nM isotype control. Error bars represent mean±SD. *p<0.05, ***p<0.001, and ****p<0.0001 as determined by t-test. […] After 4 days in culture, IFNg levels in the supernatant were measured by AlphaLISA (Perkin Elmer). […] Error bars represent mean±SD. *p<0.05 and **p<0.01 as determined by t-test. […]

The target in data set [5] is T2, cellular CD73 (Homo sapiens, UniProt P21589).
T2 sequence (P21589 27-549): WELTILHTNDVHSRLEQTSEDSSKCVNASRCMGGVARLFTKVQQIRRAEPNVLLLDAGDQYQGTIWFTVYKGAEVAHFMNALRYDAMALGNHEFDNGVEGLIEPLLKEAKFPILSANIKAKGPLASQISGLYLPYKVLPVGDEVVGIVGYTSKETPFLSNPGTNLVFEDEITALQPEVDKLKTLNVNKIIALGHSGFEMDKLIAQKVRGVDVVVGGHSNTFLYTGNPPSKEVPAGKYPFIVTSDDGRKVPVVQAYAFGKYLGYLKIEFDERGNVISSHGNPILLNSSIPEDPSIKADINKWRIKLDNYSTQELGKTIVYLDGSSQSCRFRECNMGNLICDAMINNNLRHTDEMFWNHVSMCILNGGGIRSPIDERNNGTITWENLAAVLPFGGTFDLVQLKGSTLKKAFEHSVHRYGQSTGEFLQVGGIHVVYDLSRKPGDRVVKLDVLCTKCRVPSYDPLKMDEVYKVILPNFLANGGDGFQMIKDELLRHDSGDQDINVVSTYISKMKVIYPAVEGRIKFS
Description: CD73 catalytic activity on MDA-MB-231 cells (phosphate released from AMP). To be noted: 250 μM AMP, baseline from CRISPR CD73 knockout cells and 1 mM APCP.

Data set [6] has as its target T3, human CD73 (human, UniProt P21589 27-549).
T3 construct: also called CD73 antigen; 5'-nucleotidase
T3 sequence (looked up): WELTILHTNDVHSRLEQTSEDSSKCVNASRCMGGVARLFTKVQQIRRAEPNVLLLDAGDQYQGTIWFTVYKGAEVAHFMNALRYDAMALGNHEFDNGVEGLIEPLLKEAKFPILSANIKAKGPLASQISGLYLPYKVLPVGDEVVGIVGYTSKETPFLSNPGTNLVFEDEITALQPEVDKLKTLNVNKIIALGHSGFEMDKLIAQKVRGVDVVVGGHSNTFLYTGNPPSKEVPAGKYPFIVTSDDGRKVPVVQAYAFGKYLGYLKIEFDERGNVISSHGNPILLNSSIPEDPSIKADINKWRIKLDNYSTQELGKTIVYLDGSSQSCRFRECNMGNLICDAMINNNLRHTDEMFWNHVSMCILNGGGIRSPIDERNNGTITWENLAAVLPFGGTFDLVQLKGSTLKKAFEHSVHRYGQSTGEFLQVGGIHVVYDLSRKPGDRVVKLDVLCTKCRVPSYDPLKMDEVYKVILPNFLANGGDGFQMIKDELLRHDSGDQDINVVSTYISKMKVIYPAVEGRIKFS
Kind of data set: bio-layer interferometry (Octet HTX, 25 C; antibody on anti-human IgG Fc capture sensors, antigen in solution from 300 nM, 1:1 model). For orientation: BLI is a label-free optical method that tracks binding on a fibre tip over time.

Turning to `CCNC(=O)[C@H]1O[C@@H](n2cnc3c(N)ncnc32)[C@H](O)[C@@H]1O` [NECA, 5′-(N-ethylcarboxamido)adenosine, reference compound], in data set [1] (human PBMCs, CPI-006 10 μg/mL overnight, NECA over a range of concentrations), the “effect on induction of activation markers by CPI-006” value is “did not block the induction of activation markers by CPI-006”.
As for `Cc1ccc(-c2nc(N)nc3c2nnn3Cc2cccc(CO[C@H]3CCOC3)n2)o1` [ciforadenant], the “B cell numbers or immunophenotype” value in data set [2] is listed as “no changes in B cell numbers or immunophenotype”.
With “oleclumab: another anti-CD73 antibody that binds a non-overlapping epitope; expressed as human lambda/IgG1-TM antibody”, the “enzymatic activity of CD73 on PBMCs” value in data set [3] is listed as “partial effect on enzymatic activity”. For the same molecule, the T cell proliferation result in data set [4] is “restored T cell proliferation in a subset of donors but did not reach the magnitude of the CPI-006 response”. Further, in data set [5], the “CD73 activity (free phosphate levels generated upon conversion of AMP to adenosine)” value is on record as “only partially reduced CD73 activity”. Also, in data set [1] (antibodies that do not cross-block CPI-006), the “B cell activation (CD69 expression) by other anti-CD73 antibodies” value is “fail to induce activation”.

B1: CPI-006 (antibody, human IgG1, kappa, N297Q, V domains shown)
VH: QVQLVQSGAEVEKPGASVKVSCKASGYTFTSYWITWVRQAPGQGLEWMGDIYPGSGNTNYNEKFKTRVTITADKSTSTAYMELSSLRSEDTAVYYCAKEGGLTTEDYALDYWGQGTLVTVSS
VL: EIVLTQSPATLSLSPGERATLSCRASKNVSTSGYSYMHWYQQKPGQAPRLLIYLASNLESGIPPRFSGSGYGTDFTLTINNIESEDAAYYFCQHSRELPFTFGQGTKVEIKR
Usually Kd stands for a measure of binding affinity in units of concentration. A lower Kd goes with tighter binding. As for B1, in data set [6], binding was put at a Kd of 0.2 nM.

B2: CPI-006 immunoglobulin Fab fragments: Fab fragments of CPI-006 prepared using the Pierce Fab Preparation kit (antibody, chains of the INN, looked up, V domains shown)
VH: QVQLVQSGAEVEKPGASVKVSCKASGYTFTSYWITWVRQAPGQGLEWMGDIYPGSGNTNYNEKFKTRVTITADKSTSTAYMELSSLRSEDTAVYYCAKEGGLTTEDYALDYWGQGTLVTVSS
VL: EIVLTQSPATLSLSPGERATLSCRASKNVSTSGYSYMHWYQQKPGQAPRLLIYLASNLESGIPPRFSGSGYGTDFTLTINNIESEDAAYYFCQHSRELPFTFGQGTKVEIK
modifications: Fab
notes: Fab fragments of CPI-006 prepared using the Pierce Fab Preparation kit
In the case of B2, the “expression levels of CD69 with Fab fragments” value in data set [1] (purified B cells, overnight, equimolar to 10 μg/mL CPI-006) is “minimal effect on expression levels of CD69”.
